Test results reported in patent US20250042895A1, “INHIBITORS OF ULK1 AND METHODS OF USE” (H. LEE MOFFITT CANCER CENTER AND RESEARCH INSTITUTE, INC., priority 2021, published 2025).
Blank lines part the entries; values can stand above or below the molecule they belong to.

How the values were obtained:
[1] = biological target: T1, ULK1-nanoluc (Homo sapiens, UniProt O75385); test: NanoBRET target engagement in live cells; type: cell-based; conditions: H2030 cells transfected with ULK1-nanoluc, Tracer K10, 2 hr
T1 construct: host or cells: H2030 cells (ATCC)
T1 sequence (O75385 1-1050): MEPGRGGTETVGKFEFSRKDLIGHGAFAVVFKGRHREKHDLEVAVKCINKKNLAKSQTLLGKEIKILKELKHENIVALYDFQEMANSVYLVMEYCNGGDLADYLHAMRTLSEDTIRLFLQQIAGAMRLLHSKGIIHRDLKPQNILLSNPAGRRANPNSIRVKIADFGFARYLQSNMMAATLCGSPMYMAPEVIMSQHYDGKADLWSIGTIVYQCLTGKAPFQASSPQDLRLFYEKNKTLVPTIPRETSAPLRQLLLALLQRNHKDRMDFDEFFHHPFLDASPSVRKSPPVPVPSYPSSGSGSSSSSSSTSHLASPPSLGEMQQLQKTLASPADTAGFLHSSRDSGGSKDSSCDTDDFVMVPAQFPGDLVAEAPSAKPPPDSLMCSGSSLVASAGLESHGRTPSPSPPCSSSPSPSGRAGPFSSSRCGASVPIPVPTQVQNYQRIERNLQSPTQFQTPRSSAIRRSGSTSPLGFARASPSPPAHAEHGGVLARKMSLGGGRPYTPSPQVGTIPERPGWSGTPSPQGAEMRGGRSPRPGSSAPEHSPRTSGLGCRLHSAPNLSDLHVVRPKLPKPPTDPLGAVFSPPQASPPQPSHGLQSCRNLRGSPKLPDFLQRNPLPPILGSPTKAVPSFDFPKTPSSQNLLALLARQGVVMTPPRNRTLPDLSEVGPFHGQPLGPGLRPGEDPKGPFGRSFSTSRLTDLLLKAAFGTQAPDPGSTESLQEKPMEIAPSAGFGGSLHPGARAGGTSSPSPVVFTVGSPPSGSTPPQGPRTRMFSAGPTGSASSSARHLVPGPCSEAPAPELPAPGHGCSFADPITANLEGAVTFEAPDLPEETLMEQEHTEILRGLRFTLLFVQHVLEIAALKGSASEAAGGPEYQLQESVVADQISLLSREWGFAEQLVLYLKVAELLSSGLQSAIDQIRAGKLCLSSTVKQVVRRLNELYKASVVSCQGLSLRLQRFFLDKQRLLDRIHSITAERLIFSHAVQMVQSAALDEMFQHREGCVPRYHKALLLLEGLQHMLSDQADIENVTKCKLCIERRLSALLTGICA

[2] = biological target: T2, GST-ULK1 (Homo sapiens, UniProt O75385); test: LanthaScreen ULK1 inhibitor assay; type: biochemical; conditions: 5 nM GST-ULK1, 30 nM tracer, 20 μM ATP, 1 hr room temperature
T2 sequence (O75385 1-1050): T1 sequence (O75385 1-1050)

[3] = biological target: T3, ULK1 kinase (Homo sapiens, UniProt O75385); test: Radiometric HotSpot kinase assay (Reaction Biology); type: biochemical; conditions: activity-based ULK1 kinase assay
T3 construct: purchased Reaction Biology
T3 sequence (O75385 1-1050): T1 sequence (O75385 1-1050)

[4] = biological target: T4, ULK1 kinase domain (Homo sapiens, UniProt O75385); test: Differential scanning fluorimetry (thermal shift); type: binding; conditions: 2 μM ULK1 kinase domain, 50 μM compound, vs DMSO reference
T4 construct: The protein expression construct of ULK1 kinase domain (1-283) was cloned; 6His-Sumo (N, cleaved yes); made in house; host or cells: E. coli BL21 star, co-expressed with lambda phosphatase
T4 sequence (O75385 1-283): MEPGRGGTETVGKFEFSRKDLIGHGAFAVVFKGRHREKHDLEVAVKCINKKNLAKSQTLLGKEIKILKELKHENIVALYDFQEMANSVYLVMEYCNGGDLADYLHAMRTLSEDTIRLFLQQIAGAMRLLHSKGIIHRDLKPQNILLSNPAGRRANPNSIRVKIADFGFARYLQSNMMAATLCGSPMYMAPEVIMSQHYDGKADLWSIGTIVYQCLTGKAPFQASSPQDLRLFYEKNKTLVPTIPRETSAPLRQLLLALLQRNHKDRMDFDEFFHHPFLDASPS

EC50 [1]: 1400 nM | IC50 [2]: 36 nM
SMILES: C[C@H](CO)NC(=O)c1cc(-c2cnc3[nH]c(C4=CCCNC4)cc3c2)cs1 [Compound 103]

EC50 [1]: 4290 nM | IC50 [2]: 29 nM
SMILES: C[C@@H](CO)NC(=O)c1cc(-c2cnc3[nH]c(C4=CCNC4)cc3c2)cs1 [Compound 104]

SMILES: FC(F)(F)c1cnc2[nH]c(C3=CCOCC3)cc2c1NCCCN1CCCC1 [Compound 91, 2-(3,6-dihydro-2H-pyran-4-yl)-N-(3-(pyrrolidin-1-yl)propyl)-5-(trifluoromethyl)-1H-pyrrolo[2,3-b]pyridin-4-amine]
IC50 [3]: 110 nM | ΔTm at 50 µM [4]: 9.77 °C | IC50 [2]: 167 nM

EC50 [1]: ≥ 10000 nM | IC50 [2]: 139 nM
SMILES: C[C@H](CO)NC(=O)c1cc(-c2cnc3[nH]c(C4=CCNC4)cc3c2)cs1 [Compound 105]

SMILES: FC1(F)CN(c2c(C(F)(F)F)cnc3[nH]c(C4=CCOCC4)cc23)C1 [Compound 86, 4-(3,3-Difluoroazetidin-1-yl)-2-(3,6-dihydro-2H-pyran-4-yl)-5-(trifluoromethyl)-1H-pyrrolo[2,3-b]pyridine]
IC50 [3]: 56 nM | ΔTm at 50 µM [4]: 6.82 °C | IC50 [2]: 172 nM

SMILES: FC(F)(F)c1cnc2[nH]c(C3CCOCC3)cc2c1NC1CCNC1 (stereo not drawn) [Compound 83, N-(pyrrolidin-3-yl)-2-(tetrahydro-2H-pyran-4-yl)-5-(trifluoromethyl)-1H-pyrrolo[2,3-b]-pyridin-4-amine]
IC50 [3]: 401 nM | ΔTm at 50 µM [4]: 6.81 °C | IC50 [2]: 208 nM

SMILES: O=C(NCC(O)C(F)(F)F)c1cccc(-c2cnc3[nH]c(-c4ccc(F)cc4)cc3c2)c1 (stereo not drawn) [Compound 50, 3-(2-(4-Fluorophenyl)-1H-pyrrolo[2,3-b]pyridin-5-yl)-N-(3,3,3-trifluoro-2-hydroxy-propyl)benzamide]
IC50 [3]: 91 nM | ΔTm at 50 µM [4]: 4.4 °C | IC50 [2]: 86 nM

SMILES: O=C(NC[C@H](O)CO)c1cccc(-c2cnc3[nH]c(-c4ccc(F)cc4)cc3c2)c1 [Compound 51, (S)—N-(2,3-Dihydroxypropyl)-3-(2-(4-fluorophenyl)-1H-pyrrolo[2,3-b]pyridin-5-yl)-benzamide]
IC50 [3]: 184 nM | ΔTm at 50 µM [4]: 4.76 °C | IC50 [2]: 387 nM

SMILES: O=C(NC(CO)CO)c1nc(-c2cnc3[nH]c(-c4ccc(F)cc4)cc3c2)cs1 [Compound 63, N-(1,3-Dihydroxypropan-2-yl)-4-(2-(4-fluorophenyl)-1H-pyrrolo[2,3-b]pyridin-5-yl)-thiazole-2-carboxamide]
IC50 [3]: 55 nM | ΔTm at 50 µM [4]: 6.46 °C | IC50 [2]: 103 nM

SMILES: Fc1ccc(-c2cc3c(NCC(F)(F)F)c(C(F)(F)F)cnc3[nH]2)cc1 [Compound 81, 2-(4-fluorophenyl)-N-(2,2,2-trifluoroethyl)-5-(trifluoromethyl)-1H-pyrrolo[2,3-b]pyridin-4-amine]
IC50 [3]: 15 nM | ΔTm at 50 µM [4]: 5.41 °C | IC50 [2]: 14 nM

SMILES: O=C(NC[C@@H](O)CO)c1cccc(-c2cnc3[nH]c(-c4ccc(F)cc4)cc3c2)c1 [Compound 48, (R)—N-(2,3-Dihydroxypropyl)-3-(2-(4-fluorophenyl)-1H-pyrrolo[2,3-b]pyridin-5-yl)benzamide]
IC50 [3]: 261 nM | ΔTm at 50 µM [4]: 4.52 °C | IC50 [2]: 475 nM

SMILES: O=C(NCC(O)C(F)(F)F)c1cccc(-c2cnc3[nH]c(-c4ccc(F)cc4)cc3c2)n1 (stereo not drawn) [Compound 57, 6-(2-(4-Fluorophenyl)-1H-pyrrolo[2,3-b]pyridin-5-yl)-N-(3,3,3-trifluoro-2-hydroxy-propyl)picolinamide]
IC50 [3]: 49 nM | ΔTm at 50 µM [4]: 8.73 °C | IC50 [2]: 20 nM

SMILES: CN1CC=C(c2cc3c(N4CC(F)(F)C4)c(C(F)(F)F)cnc3[nH]2)CC1 [Compound 100, 4-(3,3-difluoroazetidin-1-yl)-2-(1-methyl-1,2,3,6-tetrahydropyridin-4-yl)-5-(trifluoromethyl)-1H-pyrrolo[2,3-b]pyridine]
IC50 [3]: 171 nM | ΔTm at 50 µM [4]: 4.99 °C | IC50 [2]: 218 nM

SMILES: O=C(NCC1(O)CCCC1)c1nc(-c2cnc3[nH]c(-c4ccc(F)cc4)cc3c2)cs1 [Compound 72, 4-(2-(4-fluorophenyl)-1H-pyrrolo-[2,3-b]pyridin-5-yl)-N-((1-hydroxy-cyclopentyl)methyl)thiazole-2-carboxamide]
IC50 [3]: 50 nM | ΔTm at 50 µM [4]: 7.96 °C | IC50 [2]: 36 nM

SMILES: O=C(NC(CO)CO)c1cccc(-c2cnc3[nH]c(-c4ccc(F)cc4)cc3c2)c1 [Compound 49, N-(1,3-Dihydroxypropan-2-yl)-3-(2-(4-fluorophenyl)-1H-pyrrolo[2,3-b]pyridin-5-yl)benzamide]
IC50 [3]: 341 nM | ΔTm at 50 µM [4]: 5.11 °C | IC50 [2]: 543 nM

SMILES: O=C(NC(CO)CO)c1cccc(-c2cnc3[nH]c(-c4ccc(F)cc4)cc3c2)n1 [Compound 55, N-(1,3-Dihydroxypropan-2-yl)-6-(2-(4-fluorophenyl)-1H-pyrrolo[2,3-b]pyridin-5-yl)picolinamide]
IC50 [3]: 44 nM | ΔTm at 50 µM [4]: 8.56 °C | IC50 [2]: 74 nM

SMILES: CN1CC=C(c2cc3c(NCCN4CCOCC4)c(C(F)(F)F)cnc3[nH]2)CC1 [Compound 99, 2-(1-methyl-1,2,3,6-tetrahydropyridin-4-yl)-N-(2-morpholinoethyl)-5-(trifluoromethyl)-1H-pyrrolo[2,3-b]pyridin-4-amine]
IC50 [3]: 625 nM | ΔTm at 50 µM [4]: 7.77 °C | IC50 [2]: 374 nM

SMILES: O=C(NC[C@@H](O)CO)c1cccc(-c2cnc3[nH]c(-c4ccc(F)cc4)cc3c2)n1 [Compound 52, (R)—N-(2,3-Dihydroxypropyl)-6-(2-(4-fluorophenyl)-1H-pyrrolo[2,3-b]pyridin-5-yl)-picolinamide]
IC50 [3]: 45 nM | ΔTm at 50 µM [4]: 8.86 °C | IC50 [2]: 106 nM

SMILES: CN1CC=C(c2cc3c(NCCCN4CCCC4)c(C(F)(F)F)cnc3[nH]2)CC1 [Compound 97, 2-(1-methyl-1,2,3,6-tetrahydropyridin-4-yl)-N-(3-(pyrrolidin-1-yl)propyl)-5-(trifluoro-methyl)-1H-pyrrolo[2,3-b]pyridin-4-amine]
IC50 [3]: 2380 nM | ΔTm at 50 µM [4]: 7.07 °C | IC50 [2]: 541 nM

SMILES: CN1CCC(c2cc3c(NCCN4CCOCC4)c(C(F)(F)F)cnc3[nH]2)CC1 [Compound 95, 2-(1-methylpiperidin-4-yl)-N-(2-morpholinoethyl)-5-(trifluoromethyl)-1H-pyrrolo[2,3-b]pyridin-4-amine]
IC50 [3]: 758 nM | ΔTm at 50 µM [4]: 0.49 °C | IC50 [2]: 917 nM

SMILES: CS(=O)(=O)N1CCN(C(=O)c2cc(-c3cnc4[nH]c(-c5ccc(F)cc5)cc4c3)cs2)CC1 [Compound 29, (4-(2-(4-Fluorophenyl)-1H-pyrrolo[2,3-b]pyridin-5-yl)thiophen-2-yl)(4-(methyl-sulfonyl)piperazin-1-yl)methanone]
IC50 [3]: 938 nM | ΔTm at 50 µM [4]: 0.9 °C | IC50 [2]: 1230 nM

SMILES: FC(F)(F)c1cnc2[nH]c(C3=CCOCC3)cc2c1NC1CCNC1 (stereo not drawn) [Compound 84, 2-(3,6-dihydro-2H-pyran-4-yl)-N-(pyrrolidin-3-yl)-5-(trifluoromethyl)-1H-pyrrolo[2,3-b]pyridin-4-amine]
IC50 [3]: 549 nM | ΔTm at 50 µM [4]: 7.13 °C | IC50 [2]: 412 nM

SMILES: CC[C@H](CO)NC(=O)c1cccc(-c2cnc3[nH]c(-c4ccc(F)cc4)cc3c2)n1 [Compound 56, (R)-6-(2-(4-Fluorophenyl)-1H-pyrrolo[2,3-b]pyridin-5-yl)-N-(1-hydroxybutan-2-yl)-picolinamide]
IC50 [3]: 72 nM | ΔTm at 50 µM [4]: 6.85 °C | IC50 [2]: 80 nM

SMILES: FC1(F)CCN(c2c(C(F)(F)F)cnc3[nH]c(C4=CCOCC4)cc23)CC1 [Compound 93, 4-(4,4-Difluoropiperidin-1-yl)-2-(3,6-dihydro-2H-pyran-4-yl)-5-(trifluoromethyl)-1H-pyrrolo[2,3-b]pyridine]
IC50 [3]: 7070 nM | ΔTm at 50 µM [4]: 2.03 °C | IC50 [2]: 8280 nM
